Data on 15 compounds can be found in patent US7977352B2, “Triazolopyridine compounds useful for the treatment of degenerative and inflammatory diseases” (Galapagos NV, priority 2006, dated 2011).

One experiment concerns the target T1, TAK1-TAB1 fusion protein (Homo sapiens, UniProt O43318).
T1 construct: purchased Upstate 14-600
T1 sequence (O43318 with tags, fused parts or gaps limits assumed): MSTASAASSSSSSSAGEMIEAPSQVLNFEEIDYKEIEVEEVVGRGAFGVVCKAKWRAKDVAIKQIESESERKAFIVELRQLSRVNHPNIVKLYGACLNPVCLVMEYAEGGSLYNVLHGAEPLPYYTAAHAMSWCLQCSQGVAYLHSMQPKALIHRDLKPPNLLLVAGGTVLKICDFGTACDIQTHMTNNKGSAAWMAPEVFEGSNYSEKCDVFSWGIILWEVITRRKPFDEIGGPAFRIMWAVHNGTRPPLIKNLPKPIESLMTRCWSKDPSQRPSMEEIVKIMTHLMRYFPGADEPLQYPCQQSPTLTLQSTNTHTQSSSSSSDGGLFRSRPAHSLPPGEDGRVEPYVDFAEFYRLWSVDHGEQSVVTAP
As to the kind of experiment: In vitro TAK1 kinase assay. Format: biochemical. To be noted: casein substrate, [33P]-γ-ATP, 90 minutes at 30° C., semi-quantitative score, read-out: POTENCY TAK1 (MAP3K7). As to the method: For assessing TAK1 inhibition, active TAK1-TAB1 fusion protein was used from Upstate (Cat. No, 14-600). Kinase reactions are set up in 96-well polypropylene plates in 25 μL containing 0.5 mU TAK1-TAB1 fusion protein, 5mM ATP, 0.01 μCi/μL [^33P]-γ-ATP, 0.1 mg/mL casein substrate in 1× reaction buffer containing 10 mM MOPS pH 7.0, 1 mM EDTA.
Starting from the compound master stocks (all at 10 mM concentration in 100% DMSO) a 3-fold serial dilution is made in 96-well plates in 100% DMSO. Plates are further diluted […] in H2O containing 3.5% DMSO, to obtain an intermediate work stock with compounds at 5× the final assay concentration in 5% DMSO.
5 μL of the intermediate stock is transferred into V-bottom 96 well polypropylene plates and 11 μL of Enzyme mix is added. Enzyme mix is made by combining 5 μL 5× reaction buffer ([…] pH 7.0, 1 mM EDTA), 5 μL casein (Sigma) diluted in H20 to 0.5 mg/mL and 1 μL of TAK1-TAB1 fusion protein that was prediluted to 0.5 mU/μL in 1× enzyme dilution buffer (20 mM MOPS pH 7.0, 0.1 mM EDTA, 0.01% Brij-35, 5% glycerol, 1 mM DTT, 1 mg/ml BSA).
The reactions are started by the addition of 9 μL of mixture containing ATP (20.83 uM) and [^33P]-γ-ATP (0.028 μCi/μL).
The assay is stopped 90 minutes after incubation at 30° C. by the addition of 25 μL phosphoric acid (150 mM). The label incorporated into the casein substrate is separated from labeled unincorporated ATP by filtration onto 96-well filter plates using a harvester device. After 6 washes with 75 mM phosphoric acid, the bottom of the filter plates are sealed, and incorporated label is quantified after addition of 40 μL scintillation fluid using TopCount.

The subject of experiment [1] is MMP1 expression by activated synovial fibroblasts (RASFs). The experiment can be described thus: MMP assay: MMP1 expression by RASFs triggered with TNF-α (MMP1 ELISA). The format is cell-based. The note with it: Fibroblast, 48 h, TNF-α trigger 10 ng/mL, semi-quantitative score, read-out: REDUCTION MMP1/TNFa. As to the method: A 384-well format ELISA for measurement of MMP1 is developed. Various primary antibodies are tested, as well as various ELISA protocols. The following protocol is developed and validated to measure MMP1 levels in SF supernatant in 384 well plates: white Lumitrac 600 384 well plates (Greiner) are coated with 2 μg/mL anti-MMP1 antibody MAB1346 (Chemicon). The antibody is diluted in buffer 40 (1.21 g Tris base (Sigma), 0.58 g NaCl (Calbiochem) and 5 mL 10% NaN3 (Sigma) in 1 L milliQ water and adjusted to pH 8.5). After overnight incubation at 4° C., plates are washed with PBS (80 g NaCl, 2 g KCl (Sigma), 11.5 g Na2HPO4.7H2O and 2 g KH2PO4 in 10 L milliQ; pH 7.4) and blocked with 100 μL/well Casein buffer (2% Casein (VWR International) in PBS). Next day, casein buffer is removed from ELISA plates and replaced by 50 μL/well EC buffer (4 g casein, 2.13 g Na2HPO4 (Sigma), 2 g bovine albumin (Sigma), 0.69 g NaH2PO4.H2O (Sigma), 0.5 g CHAPS (Roche), 23.3 g NaCl, 4 mL 0.5 M EDTA pH 8 (Invitrogen), 5 mL 10% NaN3 in 1 L milliQ and adjusted to pH 7.0). 0.25 mM DTT (Sigma) is added to the thawed sample plates. After removal of the EC buffer, 20 μL of sample is transferred to the ELISA plates. After overnight incubation at 4° C. plates are washed twice with PBS and once with PBST (PBS with 0.05% Tween-20 (Sigma)) and incubated with 35 μL/well biotinylated anti-MMP1 antibody solution (R&D). This secondary antibody is diluted in buffer C (0.82 g NaH2PO4.H2O, 4.82 g Na2HPO4, 46.6 g NaCl, 20 g bovine albumin and 4 mL 0.5M EDTA pH 8 in 2 L milliQ and adjusted to pH 7.0) at a concentration of 5 μg/mL. After 2 h of incubation at RT, plates are washed as described above and incubated with 50 μL/well streptavidin-HRP conjugate (Biosource). Streptavidin-HRP conjugate is diluted in buffer C at a concentration of 0.25 μg/mL. After 45 min, plates are washed as described above and incubated for 5 min with 50 μL/well BM Chem ELISA Substrate (Roche). Readout is performed on the Luminoscan Ascent Luminometer (Labsystems) with an integration time of 200 msec or with an Envision reader (Perkin Elmer).
SFs were acquired at passage 1 from a commercial supplier (Cell applications, Inc.). SFs are cultured in DMEM supplemented with 10% heat-inactivated FBS, 1× penicillin/streptomycin (Invitrogen) at 37° C., 10% CO2 until passage 6. Aliquots of the cells are frozen and cryopreserved in liquid nitrogen. Starting from a cryopreserved aliquot, cells are further expanded by sub-culturing cells at 1/3 ratio every week. Cells between passage 10 and 12 are routinely used in compound testing according to following protocol.
Starting from the compound master stocks (all at 10 mM concentration in 100% DMSO) a 3-fold serial dilution is made in 96-well plates in 100% DMSO. Then, plates are further diluted 45-fold in M199 medium supplemented with 1% heat-inactivated FBS to obtain a intermediate work stock.
At day 1, RASFs are seeded in 96 well plates (flat bottom, tissue culture treated, Greiner) at a density of 3000 cells/well in complete synovial growth medium (Cell Applications). Day 5, the medium is completely removed from the cells, and replaced by 81 μL of M199 medium supplemented with 1% heat-inactivated FBS followed by addition of 10 μL compound out of the intermediate work stock. After an incubation period of 90 minutes, which allows the compounds to equilibrate and enter the cells, cells are stimulated with either TNF-α or ‘complex trigger’. TNF-α trigger is added in a volume of […] to obtain final concentration of 10 ng/mL. For that, TNF-α stock (PeproTech) at 10 μg/mL was diluted to 100 ng/mL TNF-a in M199 medium supplemented with 1% FBS. ‘Complex trigger’ mix is added in a volume of 20 μL to obtain a final concentration of 12.5%. For that, ‘complex trigger’ mix, is diluted to 80% with M199 medium supplemented with 1% FBS. […]

With `C[C@@H]1CN(C)[C@@H](C)CN1c1ccc(Nc2ccc(-c3cc[nH]c(=O)c3)n3ncnc23)cc1` (racemic) [Example 10, rel-4-[8-({4-[(2R,5S)-2,4,5-trimethylpiperazin-1-yl]phenyl}amino)[1,2,4]triazolo[1,5-a]pyridin-5-yl]pyridin-2(1H)-one], the IC50 at TAK1-TAB1 fusion protein was less than 500 nM; in experiment [1], 501 to 1000 nM.

Consider `C[C@@H]1CN(C)[C@@H](C)CN1c1ccc(Nc2ccc(-c3cc[nH]c(=O)c3)n3ncnc23)cc1F` (relative stereo) [Example 11, rel-4-[8-({3-fluoro-4-[(2R,5S)-2,4,5-trimethylpiperazin-1-yl]phenyl}amino)[1,2,4]triazolo[1,5-a]pyridin-5-yl]pyridin-2(1H)-one], for which the IC50 on TAK1-TAB1 fusion protein was less than 500 nM; in experiment [1] it was 1000 to 5000 nM.

For `C[C@@H]1CN(c2ccc(Nc3ccc(-c4cc[nH]c(=O)c4)n4ncnc34)cc2F)C[C@H](C)N1C` [Example 9, 4-[8-({3-fluoro-4-[(3R,5S)-3,4,5-trimethylpiperazin-1-yl]phenyl}amino)[1,2,4]triazolo[1,5-a]pyridin-5-yl]pyridin-2(1H)-one], the values for the IC50 (on TAK1-TAB1 fusion protein; in experiment [1]) were 501 to 1000 nM and 1000 to 5000 nM, respectively.

As for `CCN1CCN(c2ccc(Nc3ccc(-c4ccc(C(N)=O)cc4)n4ncnc34)cc2)CC1` [Example 12, 4-(8-{[4-(4-ethylpiperazin-1-yl)phenyl]amino}[1,2,4]triazolo[1,5-a]pyridin-5-yl)benzamide], the IC50 (on TAK1-TAB1 fusion protein; in experiment [1]) was less than 500 nM each time.

For the compound `CCCN1CCN(c2ccc(Nc3ccc(-c4ccc(C(N)=O)cc4)n4ncnc34)cc2)CC1` [Example 13, 4-(8-{[4-(4-propylpiperazin-1-yl)phenyl]amino}[1,2,4]triazolo[1,5-a]pyridin-5-yl)benzamide], the IC50 on TAK1-TAB1 fusion protein is less than 500 nM; in experiment [1], more than 10000 nM.

For the compound `CCC(CC)N1CCN(c2ccc(Nc3ccc(-c4ccc(C(N)=O)cc4)n4ncnc34)cc2)CC1` [Example 14, 4-[8-({4-[4-(1-ethylpropyl)piperazin-1-yl]phenyl}amino)[1,2,4]triazolo[1,5-a]pyridin-5-yl]benzamide], the values for the IC50 (at TAK1-TAB1 fusion protein; in experiment [1]) were less than 500 nM and more than 10000 nM, respectively.

As for `CC(C)CCN1CCN(c2ccc(Nc3ccc(-c4ccc(C(N)=O)cc4)n4ncnc34)cc2)CC1` [Example 15, 4-[8-({4-[4-(3-methylbutyl)piperazin-1-yl]phenyl}amino)[1,2,4]triazolo[1,5-a]pyridin-5-yl]benzamide], the IC50 at TAK1-TAB1 fusion protein is less than 500 nM; in experiment [1], 1000 to 5000 nM.

Turning to `NC(=O)c1ccc(-c2ccc(Nc3ccc(N4CCN(C5CCC5)CC4)cc3)c3ncnn23)cc1` [Example 16, 4-(8-{[4-(4-cyclobutylpiperazin-1-yl)phenyl]amino}[1,2,4]triazolo[1,5-a]pyridin-5-yl)benzamide], the IC50 was less than 500 nM on TAK1-TAB1 fusion protein and 5000 to 10000 nM in experiment [1].

As for `NC(=O)c1ccc(-c2ccc(Nc3ccc(N4CCN(C5CC5)CC4)cc3)c3ncnn23)cc1` [Example 18, 4-(8-{[4-(4-cyclopropylpiperazin-1-yl)phenyl]amino}[1,2,4]triazolo[1,5-a]pyridin-5-yl)benzamide], the IC50 (at TAK1-TAB1 fusion protein; in experiment [1]) was 1000 to 5000 nM in each case.

In the case of `CCN1CCN(c2ccc(Nc3ccc(-c4cc[nH]c(=O)c4)n4ncnc34)cc2)CC1` [Example 19, 4-(8-{[4-(4-ethylpiperazin-1-yl)phenyl]amino}[1,2,4]triazolo[1,5-a]pyridin-5-yl)pyridin-2(1H)-one], the IC50 was less than 500 nM at TAK1-TAB1 fusion protein and 1000 to 5000 nM in experiment [1].

With `CCCN1CCN(c2ccc(Nc3ccc(-c4cc[nH]c(=O)c4)n4ncnc34)cc2)CC1` [Example 20, 4-(8-{[4-(4-propylpiperazin-1-yl)phenyl]amino}[1,2,4]triazolo[1,5-a]pyridin-5-yl)pyridin-2(1H)-one], the IC50 at TAK1-TAB1 fusion protein is less than 500 nM; in experiment [1], 1000 to 5000 nM.

In the case of `CCC(CC)N1CCN(c2ccc(Nc3ccc(-c4cc[nH]c(=O)c4)n4ncnc34)cc2)CC1` [Example 21, 4-[8-({4-[4-(1-ethylpropyl)piperazin-1-yl]phenyl}amino)[1,2,4]triazolo[1,5-a]pyridin-5-yl]pyridin-2(1H)-one], the figures for the IC50 (on TAK1-TAB1 fusion protein; in experiment [1]) were less than 500 nM and more than 10000 nM, respectively.

With `CC(C)CCN1CCN(c2ccc(Nc3ccc(-c4cc[nH]c(=O)c4)n4ncnc34)cc2)CC1` [Example 22, 4-[8-({4-[4-(3-methylbutyl)piperazin-1-yl]phenyl}amino)[1,2,4]triazolo[1,5-a]pyridin-5-yl]pyridin-2(1H)-one], the IC50 on TAK1-TAB1 fusion protein is less than 500 nM; in experiment [1] it was 1000 to 5000 nM.

In the case of `O=c1cc(-c2ccc(Nc3ccc(N4CCN(C5CC5)CC4)cc3)c3ncnn23)cc[nH]1` [Example 23, 4-(8-{[4-(4-cyclopropylpiperazin-1-yl)phenyl]amino}[1,2,4]triazolo[1,5-a]pyridin-5-yl)pyridin-2(1H)-one], the IC50 at TAK1-TAB1 fusion protein was less than 500 nM; in experiment [1], 1000 to 5000 nM.

In the case of `O=c1cc(-c2ccc(Nc3ccc(N4CCN(C5CCC5)CC4)cc3)c3ncnn23)cc[nH]1` [Example 24, 4-(8-{[4-(4-cyclobutylpiperazin-1-yl)phenyl]amino}[1,2,4]triazolo[1,5-a]pyridin-5-yl)pyridin-2(1H)-one], the IC50 is less than 500 nM at TAK1-TAB1 fusion protein and 1000 to 5000 nM in experiment [1].
